The structures appear in SMILES notation. A value given as a limit tells only on which side of the number the result lay.

NS3, sequence (A3EZJ3 whole entry): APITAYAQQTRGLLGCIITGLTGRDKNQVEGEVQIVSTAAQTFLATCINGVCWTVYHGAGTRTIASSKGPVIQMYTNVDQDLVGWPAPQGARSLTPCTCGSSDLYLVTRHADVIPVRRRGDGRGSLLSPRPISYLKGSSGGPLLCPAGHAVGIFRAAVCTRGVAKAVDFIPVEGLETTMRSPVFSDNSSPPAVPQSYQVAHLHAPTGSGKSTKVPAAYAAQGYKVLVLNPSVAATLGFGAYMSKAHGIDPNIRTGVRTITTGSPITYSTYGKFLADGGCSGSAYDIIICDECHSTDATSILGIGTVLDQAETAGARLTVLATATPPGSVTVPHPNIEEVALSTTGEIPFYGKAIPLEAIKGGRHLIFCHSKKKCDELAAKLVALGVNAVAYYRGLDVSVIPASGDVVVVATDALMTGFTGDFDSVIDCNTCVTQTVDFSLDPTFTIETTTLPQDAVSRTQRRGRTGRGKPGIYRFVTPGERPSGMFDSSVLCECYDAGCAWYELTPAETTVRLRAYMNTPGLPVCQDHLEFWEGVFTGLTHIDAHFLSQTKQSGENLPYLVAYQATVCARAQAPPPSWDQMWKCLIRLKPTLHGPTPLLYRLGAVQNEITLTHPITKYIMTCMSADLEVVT

This test concerns the target NS3 (Hepatitis C virus, UniProt A3EZJ3). As to the kind of experiment: Binding affinity against Hepatitis C virus NS3 protease. On the set-up: species or system Hepacivirus hominis.
As for `CCCN(NC(=O)[C@H]1CCCN1C(=O)[C@@H](NC(=O)[C@@H](NC(=O)[C@H](CC(=O)O)NC(=O)[C@H](CCC(=O)O)NC(=O)[C@@H](NC(=O)[C@H](CC(=O)O)NC(C)=O)[C@@H](C)O)C(C)C)C(C)C)C(=O)c1cc([N+](=O)[O-])cc([N+](=O)[O-])c1`, the Ki – broadly, a dissociation constant, usually derived from enzyme kinetics or from competition with a known ligand – is more than 100 µM.
In turn, `CCCN(NC(=O)[C@H]1CCCN1C(=O)[C@@H](NC(=O)[C@@H](NC(=O)[C@H](CC(=O)O)NC(=O)[C@H](CCC(=O)O)NC(=O)[C@@H](NC(=O)[C@H](CC(=O)O)NC(C)=O)[C@@H](C)O)C(C)C)C(C)C)C(=O)c1cc(C(F)(F)F)cc(C(F)(F)F)c1` yielded a Ki of more than 100 µM.
`CCCN(NC(=O)[C@H]1CCCN1C(=O)[C@@H](NC(=O)[C@@H](NC(=O)[C@H](CC(=O)O)NC(=O)[C@H](CCC(=O)O)NC(=O)[C@@H](NC(=O)[C@H](CC(=O)O)NC(C)=O)[C@@H](C)O)C(C)C)C(C)C)C(=O)OCc1ccc([N+](=O)[O-])cc1` came in with an inhibition constant (Ki) of 45 µM.
`CCN(NC(=O)[C@H]1CCCN1C(=O)[C@@H](NC(=O)[C@@H](NC(=O)[C@H](CC(=O)O)NC(=O)[C@H](CCC(=O)O)NC(=O)[C@@H](NC(=O)[C@H](CC(=O)O)NC(C)=O)[C@@H](C)O)C(C)C)C(C)C)C(=O)OC(Cl)C(Cl)(Cl)Cl` (stereo partly drawn) had a Ki of 0.9 µM. This Ki is about 50-fold lower than that of the compound before.
As for `CCN(NC(=O)[C@H]1CCCN1C(=O)[C@@H](NC(=O)[C@@H](NC(=O)[C@H](CC(=O)O)NC(=O)[C@H](CCC(=O)O)NC(=O)[C@@H](NC(=O)[C@H](CC(=O)O)NC(C)=O)[C@@H](C)O)C(C)C)C(C)C)C(=O)Oc1ccc([N+](=O)[O-])cc1`, the figure is more than 100 µM; as for `CCCN(NC(=O)[C@H]1CCCN1C(=O)[C@@H](NC(=O)[C@@H](NC(=O)[C@H](CC(=O)O)NC(=O)[C@H](CCC(=O)O)NC(=O)[C@@H](NC(=O)[C@H](CC(=O)O)NC(C)=O)[C@@H](C)O)C(C)C)C(C)C)C(=O)CCl`, more than 100 µM; as for `CCCN(NC(=O)[C@H]1CCCN1C(=O)[C@@H](NC(=O)[C@@H](NC(=O)[C@H](CC(=O)O)NC(=O)[C@H](CCC(=O)O)NC(=O)[C@@H](NC(=O)[C@H](CC(=O)O)NC(C)=O)[C@@H](C)O)C(C)C)C(C)C)C(=O)Sc1ccccc1`, 160 µM.
As for `CCCN(NC(=O)[C@H]1CCCN1C(=O)[C@@H](NC(=O)[C@@H](NC(=O)[C@H](CC(=O)O)NC(=O)[C@H](CCC(=O)O)NC(=O)[C@@H](NC(=O)[C@H](CC(=O)O)NC(C)=O)[C@@H](C)O)C(C)C)C(C)C)C(=O)c1ccc(C#N)cc1`, the figure is more than 100 µM; as for `CCCN(NC(=O)[C@H]1CCCN1C(=O)[C@@H](NC(=O)[C@@H](NC(=O)[C@H](CC(=O)O)NC(=O)[C@H](CCC(=O)O)NC(=O)[C@@H](NC(=O)[C@H](CC(=O)O)NC(C)=O)[C@@H](C)O)C(C)C)C(C)C)C(=O)N[C@@H](CO)C(=O)N[C@@H](CCSC)C(=O)N[C@@H](CO)C(=O)N[C@@H](Cc1ccc(O)cc1)C(=O)N[C@H](C(=O)N[C@@H](Cc1c[nH]c2ccccc12)C(=O)N[C@H](C(=O)NCC(=O)N[C@@H](CCCCN)C(=O)O)[C@@H](C)O)[C@@H](C)O`, 10 µM; as for `CCCN(NC(=O)[C@H]1CCCN1C(=O)[C@@H](NC(=O)[C@@H](NC(=O)[C@H](CC(=O)O)NC(=O)[C@H](CCC(=O)O)NC(=O)[C@@H](NC(=O)[C@H](CC(=O)O)NC(C)=O)[C@@H](C)O)C(C)C)C(C)C)C(=O)c1ccc(-c2ccccc2)cc1`, more than 100 µM.
The result for `CCCN(NC(=O)[C@H]1CCCN1C(=O)[C@@H](NC(=O)[C@@H](NC(=O)[C@H](CC(=O)O)NC(=O)[C@H](CCC(=O)O)NC(=O)[C@@H](NC(=O)[C@H](CC(=O)O)NC(C)=O)[C@@H](C)O)C(C)C)C(C)C)C(=O)Oc1ccccc1[N+](=O)[O-]` reads 9 µM; that for `CCCN(NC(=O)[C@H]1CCCN1C(=O)[C@@H](NC(=O)[C@@H](NC(=O)[C@H](CC(=O)O)NC(=O)[C@H](CCC(=O)O)NC(C)=O)C(C)C)C(C)C)C(=O)Oc1ccc([N+](=O)[O-])cc1`, 6 µM; that for `CCCN(NC(=O)[C@H]1CCCN1C(=O)[C@@H](NC(=O)[C@@H](NC(=O)[C@H](CC(=O)O)NC(=O)[C@H](CCC(=O)O)NC(=O)[C@@H](NC(=O)[C@H](CC(=O)O)NC(C)=O)[C@@H](C)O)C(C)C)C(C)C)C(=O)c1ccc(/N=N\c2ccc([N+](=O)[O-])cc2)cc1`, more than 100 µM.
The compound `CCCN(NC(=O)[C@H]1CCCN1C(=O)[C@@H](NC(=O)[C@@H](NC(=O)[C@H](CC(=O)O)NC(=O)[C@H](CCC(=O)O)NC(=O)[C@@H](NC(=O)[C@H](CC(=O)O)NC(C)=O)[C@@H](C)O)C(C)C)C(C)C)C(=O)OCC(Cl)(Cl)Cl` showed an inhibition constant (Ki) of 14 µM.
The result for `CCCN(NC(=O)[C@H]1CCCN1C(=O)[C@@H](NC(=O)[C@@H](NC(=O)[C@H](CC(=O)O)NC(=O)[C@H](CCC(=O)O)NC(=O)[C@@H](NC(=O)[C@H](CC(=O)O)NC(C)=O)[C@@H](C)O)C(C)C)C(C)C)C(=O)c1ccc(S(=O)(=O)F)cc1` reads more than 100 µM.
Compound `CCCN(NC(=O)[C@H]1CCCN1C(=O)[C@@H](NC(=O)[C@@H](NC(=O)[C@H](CC(=O)O)NC(=O)[C@H](CCC(=O)O)NC(C)=O)C(C)C)C(C)C)C(=O)N[C@@H](CO)C(=O)N[C@@H](CCSC)C(=O)N[C@@H](CO)C(N)=O` showed a Ki of 200 µM.
The result for `CCCN(NC(=O)[C@H]1CCCN1C(=O)[C@@H](NC(=O)[C@@H](NC(=O)[C@H](CC(=O)O)NC(=O)[C@H](CCC(=O)O)NC(=O)[C@@H](NC(=O)[C@H](CC(=O)O)NC(C)=O)[C@@H](C)O)C(C)C)C(C)C)C(=O)Oc1ccc(Cl)cc1` reads 16 µM; that for `CCCC(=O)N(CCC)NC(=O)[C@H]1CCCN1C(=O)[C@@H](NC(=O)[C@@H](NC(=O)[C@H](CC(=O)O)NC(=O)[C@H](CCC(=O)O)NC(=O)[C@@H](NC(=O)[C@H](CC(=O)O)NC(C)=O)[C@@H](C)O)C(C)C)C(C)C`, more than 100 µM.
The result for `CCCN(NC(=O)[C@H]1CCCN1C(=O)[C@@H](NC(=O)[C@@H](NC(=O)[C@H](CC(=O)O)NC(=O)[C@H](CCC(=O)O)NC(=O)[C@@H](NC(=O)[C@H](CC(=O)O)NC(C)=O)[C@@H](C)O)C(C)C)C(C)C)C(=O)C(=O)OCC` reads more than 100 µM.
The compound `CCCN(NC(=O)[C@H]1CCCN1C(=O)[C@@H](NC(=O)[C@@H](NC(=O)[C@H](CC(=O)O)NC(=O)[C@H](CCC(=O)O)NC(=O)[C@@H](NC(=O)[C@H](CC(=O)O)NC(C)=O)[C@@H](C)O)C(C)C)C(C)C)C(C)=O` came in with a Ki of more than 100 µM.
In turn, `CCCN(NC(=O)[C@H]1CCCN1C(=O)[C@@H](NC(=O)[C@@H](NC(=O)[C@H](CC(=O)O)NC(=O)[C@H](CCC(=O)O)NC(=O)[C@@H](NC(=O)[C@H](CC(=O)O)NC(C)=O)[C@@H](C)O)C(C)C)C(C)C)C(=O)OC(Cl)C(Cl)(Cl)Cl` (stereo partly drawn) had a Ki of 0.2 µM.
As for `CCCN(NC(=O)[C@H]1CCCN1C(=O)[C@@H](NC(=O)[C@@H](NC(=O)[C@H](CC(=O)O)NC(=O)[C@H](CCC(=O)O)NC(=O)[C@@H](NC(=O)[C@H](CC(=O)O)NC(C)=O)[C@@H](C)O)C(C)C)C(C)C)C(=O)CBr`, the figure is more than 100 µM.
The compound `CCCN(NC(=O)[C@H]1CCCN1C(=O)[C@@H](NC(=O)[C@@H](NC(=O)[C@H](CC(=O)O)NC(=O)[C@H](CCC(=O)O)NC(=O)[C@@H](NC(=O)[C@@H](N)CC(=O)O)[C@@H](C)O)C(C)C)C(C)C)C(=O)N[C@@H](CO)C(=O)N[C@@H](CCSC)C(=O)N[C@@H](CO)C(=O)N[C@@H](Cc1ccc(O)cc1)C(=O)N[C@H](C(=O)N[C@@H](Cc1c[nH]c2ccccc12)C(=O)N[C@H](C(=O)NCC(=O)N[C@@H](CCCCN)C(=O)O)[C@@H](C)O)[C@@H](C)O` returned a Ki of 20 µM.
In turn, `CCCN(NC(=O)[C@H]1CCCN1C(=O)[C@@H](NC(=O)[C@@H](NC(=O)[C@H](CC(=O)O)NC(=O)[C@H](CCC(=O)O)NC(=O)[C@@H](NC(=O)[C@H](CC(=O)O)NC(C)=O)[C@@H](C)O)C(C)C)C(C)C)C(=O)c1c(F)c(F)c(F)c(F)c1F` displayed an inhibition constant (Ki) of more than 100 µM.
As for `CCCN(NC(=O)[C@H]1CCCN1C(=O)[C@@H](NC(=O)[C@@H](NC(C)=O)C(C)C)C(C)C)C(=O)Oc1ccc([N+](=O)[O-])cc1`, the figure is 100 µM; as for `CCCN(NC(=O)[C@H]1CCCN1C(=O)[C@@H](NC(=O)[C@@H](NC(=O)[C@H](CC(=O)O)NC(=O)[C@H](CCC(=O)O)NC(=O)[C@@H](NC(=O)[C@H](CC(=O)O)NC(C)=O)[C@@H](C)O)C(C)C)C(C)C)C(=O)Oc1ccccc1`, 8 µM; as for `CCCN(NC(=O)[C@H]1CCCN1C(=O)[C@@H](NC(=O)[C@@H](NC(=O)[C@H](CC(=O)O)NC(=O)[C@H](CCC(=O)O)NC(=O)[C@@H](NC(=O)[C@H](CC(=O)O)NC(C)=O)[C@@H](C)O)C(C)C)C(C)C)C(=O)N[C@@H](CO)C(=O)N[C@@H](CCSC)C(=O)N[C@@H](CO)C(=O)O`, 200 µM.
In turn, `CCCN(NC(=O)[C@H]1CCCN1C(=O)[C@@H](NC(=O)[C@@H](NC(=O)[C@H](CC(=O)O)NC(=O)[C@H](CCC(=O)O)NC(=O)[C@@H](NC(=O)[C@H](CC(=O)O)NC(C)=O)[C@@H](C)O)C(C)C)C(C)C)C(=O)c1ccc([N+](=O)[O-])cc1` showed a Ki of more than 100 µM.
The result for `CCCN(NC(=O)[C@H]1CCCN1C(=O)[C@@H](NC(=O)[C@@H](NC(=O)[C@H](CC(=O)O)NC(=O)[C@H](CCC(=O)O)NC(C)=O)C(C)C)C(C)C)C(=O)N[C@@H](CO)C(=O)N[C@@H](CCSC)C(=O)N[C@@H](CO)C(=O)N[C@@H](Cc1ccc(O)cc1)C(=O)N[C@H](C(=O)N[C@@H](Cc1c[nH]c2ccccc12)C(=O)N[C@H](C(=O)NCC(=O)N[C@@H](CCCCN)C(=O)O)[C@@H](C)O)[C@@H](C)O` reads 20 µM.
The result for `CCCCC(=O)N(CCC)NC(=O)[C@H]1CCCN1C(=O)[C@@H](NC(=O)[C@@H](NC(=O)[C@H](CC(=O)O)NC(=O)[C@H](CCC(=O)O)NC(=O)[C@@H](NC(=O)[C@H](CC(=O)O)NC(C)=O)[C@@H](C)O)C(C)C)C(C)C` reads more than 100 µM; that for `CCCN(NC(=O)[C@H]1CCCN1C(=O)[C@@H](NC(=O)[C@@H](NC(=O)[C@H](CC(=O)O)NC(=O)[C@H](CCC(=O)O)NC(=O)[C@@H](NC(=O)[C@H](CC(=O)O)NC(C)=O)[C@@H](C)O)C(C)C)C(C)C)C(=O)CC`, more than 100 µM; that for `CCCN(NC(=O)[C@H]1CCCN1C(=O)[C@@H](NC(=O)[C@@H](NC(=O)[C@H](CC(=O)O)NC(=O)[C@H](CCC(=O)O)NC(=O)[C@@H](NC(=O)[C@H](CC(=O)O)NC(C)=O)[C@@H](C)O)C(C)C)C(C)C)C(=O)Sc1ccc(Cl)cc1`, 100 µM.
The result for `CCCN(NC(=O)[C@H]1CCCN1C(=O)[C@@H](NC(=O)[C@@H](NC(=O)[C@H](CC(=O)O)NC(=O)[C@H](CCC(=O)O)NC(=O)[C@@H](NC(=O)[C@H](CC(=O)O)NC(C)=O)[C@@H](C)O)C(C)C)C(C)C)C(=O)OCc1ccccc1` reads 80 µM.

The record behind these values is ChEMBL document CHEMBL1135259, “Azapeptides as inhibitors of the hepatitis C virus NS3 serine protease” (Bioorg Med Chem Lett, 2002).
